From patent publication US5591726A, “Heterocyclylalkyl diarylboron ester and thioester fungicidal agents” (American Cyanamid Company, priority 1994, dated 1997)

Columns and labels:
[1] = test system: Venturia inaequalis; assay: In vivo fungicidal evaluation, Apple Scab (AS); conditions: 200 ppm foliar spray; note: ranges in brackets are in %
Protocol: (§1) Test compounds are dissolved or suspended in acetone and diluted with deionized water containing about 0.05% TWEEN®20, a polyoxyethylene sorbitan monolaurate surfactant manufactured by Atlas Chemical Industries, to give a concentration of 200 ppm. Host plants are sprayed with the test solution, dried and inoculated with fungi. When disease symptom development is optimal, the plants are rated for disease control according to the rating scale shown below. Each test contains inoculated treated plants, inoculated untreated plants and a reference standard. When more than one test is run, the data are averaged. The data obtained are shown in Table I. |AS Apple Scab Venturia inaequalis

[2] = test system: Plasmopara viticola; assay: In vivo fungicidal evaluation, Grape Downy Mildew (GDM); conditions: 200 ppm foliar spray; note: ranges in brackets are in %
Protocol: as §1, with “|GDM Grape Downy Mildew | Plasmopara viticola” for “|AS Apple Scab Venturia inaequalis”

[3] = test system: Botrytis cinerea; assay: In vivo fungicidal evaluation, Pepper Botrytis (PB); conditions: 200 ppm foliar spray; note: ranges in brackets are in %
Protocol: as §1, with “|PB Pepper Botrytis Botrytis cinerea” for “|AS Apple Scab Venturia inaequalis”

[4] = test system: Pyricularia grisea; assay type: in vivo; conditions: Rice Blast; 200 ppm foliar spray
[5] = test system: Cercospora beticola; assay: In vivo fungicidal evaluation, Sugar Beet Cercospora (SBC); conditions: 200 ppm foliar spray; note: ranges in brackets are in %
Protocol: as §1, with “|SBC Sugar Beet Cercospora | Cercospora beticola” for “|AS Apple Scab Venturia inaequalis”

[6] = test system: Alternaria solani; assay: In vivo fungicidal evaluation, Tomato Early Blight (TEB); conditions: 200 ppm foliar spray; note: ranges in brackets are in %
Protocol: as §1, with “|TEB Tomato Early Blight | Alternaria solani” for “|AS Apple Scab Venturia inaequalis”

[7] = test system: Erysiphe graminis f. sp. tritici; assay: In vivo fungicidal evaluation, Wheat Powdery Mildew (WPM); conditions: 200 ppm foliar spray; note: ranges in brackets are in %
Protocol: as §1, with “|WPM Wheat Powdery Mildew | Erysiphe graminis | f. sp. tritici” for “|AS Apple Scab Venturia inaequalis”

[8] = test system: Septoria nodorum; assay: In vivo fungicidal evaluation, Wheat Septoria Nodorum (WSN); conditions: 200 ppm foliar spray
Protocol: Test compounds are dissolved or suspended in acetone and diluted with deionized water containing about 0.05% TWEEN®20, a polyoxyethylene sorbitan monolaurate surfactant manufactured by Atlas Chemical Industries, to give a concentration of 200 ppm.
Host plants are sprayed with the test solution, dried and inoculated with fungi. When disease symptom development is optimal, the plants are rated for disease control according to the rating scale shown below. Each test contains inoculated treated plants, inoculated untreated plants and a reference standard. When more than one test is run, the data are averaged.
WSN Wheat Septoria Nodorum

[9] = test system: Fusarium oxysporum f. sp. cucumerinum; assay: In vitro fungicidal evaluation, FUSOXC; assay type: cell-based; conditions: 25 ppm; 3-7 days at 21° C. Note: ranges in brackets are in %.
Protocol: (§2) Test compounds are dissolved or suspended in acetone and dispersed into cell well plates containing a suspension of ground fungal mycelia/spores in a nutrient broth. Assay plates are incubated for 3-7 days at 21° C. Growth inhibition is measured visually and is rated using the following scale:
(§3) Untreated controls, solvent blanks and reference standards are included in each test.
(§4) Assay fungi include the plant pathogens, Pythium ultimum (PYTHUL); Rhizoctonia solani (RHIZSO); Fusarium oxysporum f. sp. cucumerinum (FUSOXC); and Pseudocercosporella herpotrichoides (PSDCHE).
(§5) When more than one test is run, the data are averaged. The compounds evaluated are reported by compound number given in Example 3.

[10] = test system: Pythium ultimum; assay: In vitro fungicidal evaluation, PYTHUL; assay type: cell-based; conditions: 25 ppm; 3-7 days at 21° C. Note: ranges in brackets are in %.
Protocol: as §2, §3, §4, §5

[11] = test system: Rhizoctonia solani; assay: In vitro fungicidal evaluation, RHIZSO; assay type: cell-based; conditions: 25 ppm; 3-7 days at 21° C. Note: ranges in brackets are in %.
Protocol: as §2, §3, §4, §5

[12] = test system: Pseudocercosporella herpotrichoides; assay: In vitro fungicidal evaluation, PSDCHE; assay type: cell-based; conditions: 25 ppm; 3-7 days at 21° C. Note: ranges in brackets are in %.
Protocol: as §2, §3, §4, §5

[13] = test system: Septoria nodorum (propiconazole-resistant and -sensitive strains); assay type: cell-based; conditions: EC50 resistant strain / EC50 sensitive strain, 50 to 54 hours
[14] = test system: Ustilago avenae (triadimefon-resistant and -sensitive strains); assay type: cell-based; conditions: EC50 resistant strain / EC50 sensitive strain, 50 to 54 hours
[15] = test system: Cladosporium cucumerinum (fenarimol-resistant and -sensitive strains); assay type: cell-based; conditions: EC50 resistant strain / EC50 sensitive strain, 50 to 54 hours

Structure (SMILES) | Disease control rating, AS [1] | Disease control rating, GDM [2] | Disease control rating, PB [3] | Disease control rating, RB [4] | Disease control rating, SBC [5] | Disease control rating, TEB [6] | Disease control rating, WPM [7] | Disease control rating, WSN [8] | Growth inhibition rating, FUSOXC [9] | Growth inhibition rating, PYTHUL [10] | Growth inhibition rating, RHIZSO [11] | Growth inhibition rating, PSDCHE [12] | Resistance Factor, Septoria nodorum [13] | Resistance Factor, Ustilago avenae [14] | Resistance Factor, Cladosporium cucumerinum [15]
Fc1ccc(B(OC(Cn2ccnc2)c2ccc(Cl)cc2Cl)c2ccc(F)cc2)cc1 (centres unmarked) [Compound 1, 1-(2,4-Dichlorophenyl)-2-(imidazol-1-yl)ethyl bis(p-fluorophenyl)borinate] | 0 (0) | 0 (0) | 0 (0) | 8 (96-99) | 6 (75-89) | 4 (45-59) | 8 (96-99) | 0 (0) | 5 (60-89) | 5 (60-89) | 7 (90-99) | 0 (0) | 1.2 | 2.6 | 1.5
Clc1ccc(COC(Cn2ccnc2)c2ccc(Cl)cc2Cl)c(Cl)c1 (centres unmarked) [Miconazole nitrate, reference compound] | – | – | – | – | – | – | – | – | – | – | – | – | 2.5 | 4.1 | 2.4
Clc1ccc(C(OB(c2ccccc2)c2ccccc2)(c2cncnc2)c2ccccc2Cl)cc1 (centres unmarked) [Compound 2, (o-Chlorophenyl)(p-chlorophenyl)(5-pyrimidinyl)methyl diphenylborinate] | 9 (100) | 3 (30-44) | 8 (96-99) | 0 (0) | 9 (100) | 8 (96-99) | 8 (96-99) | 8 (96-99) | 9 (100) | 7 (90-99) | 9 (100) | 0 (0) | 1.3 | 1.3 | –
CC(C)(C)C(CCc1ccc(Cl)cc1)(Cn1cncn1)OB(c1ccc(F)cc1)c1ccc(F)cc1 (centres unmarked) [Compound 4, 1-Tert-butyl-3-(p-chlorophenyl)-1-(1H-1,2,4-triazol-1-ylmethyl)propyl bis(p-fluorophenyl)borinate] | 7 (90-95) | 8 (96-99) | 7 (90-95) | 6 (75-89) | 6 (75-89) | 6 (75-89) | 8 (96-99) | 2 (15-29) | 9 (100) | 9 (100) | 9 (100) | 0 (0) | 1.9 | 2.3 | 1.3
CC(C)(C)C(O)(CCc1ccc(Cl)cc1)Cn1cncn1 (centres unmarked) [Tebuconazole, reference compound] | – | – | – | – | – | – | – | – | – | – | – | – | 6.1 | – | –
Fc1ccc(B(OC(c2ccc(Cl)cc2)(c2cncnc2)c2ccccc2Cl)c2ccc(F)cc2)cc1 (centres unmarked) [Compound 5, (o-Chlorophenyl)(p-chlorophenyl)(5-pyrimidinyl)methyl bis(p-fluorophenyl)borinate] | 7 (90-95) | 0 (0) | 0 (0) | 0 (0) | 7 (90-95) | 3 (30-44) | 8 (96-99) | 7 (90-95) | 0 (0) | 1 (1-29) | 7 (90-99) | 0 (0) | – | – | –
Clc1ccc(C(Cn2ccnc2)OB(c2ccccc2)c2ccccc2)c(Cl)c1 (centres unmarked) [Compound 6, 1-(2,4-Dichlorophenyl)-2-(imidazol-1-yl)ethyl diphenylborinate] | 3 (30-44) | 0 (0) | 0 (0) | 0 (0) | 5 (60-74) | 0 (0) | 8 (96-99) | 0 (0) | 9 (100) | 7 (90-99) | 9 (100) | 0 (0) | 1.0 | 1.6 | 1.1
OC(c1ccc(Cl)cc1)(c1cncnc1)c1ccccc1Cl (centres unmarked) [Fenarimol, reference compound] | – | – | – | – | – | – | – | – | – | – | – | – | 9.6 | 9.9 | –
Clc1ccc(COC(Cn2ccnc2)c2ccc(Cl)cc2Cl)cc1 (centres unmarked) [Econazole nitrate, reference compound] | – | – | – | – | – | – | – | – | – | – | – | – | 1.8 | 2.0 | 2.0
